Experiments:
Experiment in all cases: inhibition of growth of cell lines (IC50 categories)
Format in all cases: cell-based
[1] = tested on: CWR22R; settings: Homo sapiens, 22Rv1
Experimental: (§1) This example provides a table (below) of the compounds of the present disclosure and their activity towards four different cell lines (i.e., CWR22R, Hela, PC3, and MDA-MB-231). The IC50 for inhibition of growth is divided into 4 categories: A<1 μM, B 1-5 μM, […], D>20 μM.
(§2) All compounds were tested for toxicity using 4 cells lines, target cells-CWR22R and non-target cells, Hela, PC3 and MDA-MB-231 (FIGS. 1A-F).

[2] = tested on: MDA-MB-231; settings: Homo sapiens
Experimental: as §1, §2

[3] = tested on: PC3; settings: Homo sapiens, PC-3
Experimental: as §1, §2

[4] = tested on: Hela; settings: Homo sapiens
Experimental: as §1, §2

| SMILES | IC50 [2] [µM] | IC50 [3] [µM] | IC50 [4] [µM] | IC50 [1] [µM] |
| --- | --- | --- | --- | --- |
| CCCn1c2ccccc2c2c3c(ccc21)C(=O)CC3 [Compound 1-1, 6-Propyl-1,2-dihydro-6H-cyclopenta[c]carbazol-3-one] | > 20 | > 20 | > 20 | < 1 |
| Cn1c2ccccc2c2c3c(ccc21)C(=O)CC3 [Compound 1-3] | 5 to 20 | 5 to 20 | 5 to 20 | 5 to 20 |
| CCCn1c2ccccc2c2c3c(ccc21)C(=O)CCC3 [Compound 1-4] | > 20 | > 20 | > 20 | < 1 |
| O=C1CCCc2c1ccc1c2c2ccccc2n1CCCF [Compound 1-5] | > 20 | > 20 | > 20 | < 1 |
| CCCn1c2ccccc2c2c3c(ccc21)C(=O)CO3 [Compound 1-6] | > 20 | > 20 | > 20 | < 1 |
| O=C1COc2c1ccc1c2c2ccccc2n1CCCF [Compound 1-7] | > 20 | > 20 | > 20 | < 1 |
| CCCn1c2ccccc2c2c3c(ccc21)C(=O)CCO3 [Compound 1-8] | > 20 | > 20 | > 20 | < 1 |
| O=C1CCOc2c1ccc1c2c2ccccc2n1CCCF [Compound 1-9] | > 20 | > 20 | > 20 | < 1 |
| CCCn1c2ccccc2c2c3c(ccc21)C(=O)NC3 [Compound 1-10, 6-propyl-1,2-dihydro-6H-pyrrolo[3,4-c]carbazol-3-one] | > 20 | > 20 | > 20 | < 1 |
| O=C1NCc2c1ccc1c2c2ccccc2n1CCCF [Compound 1-11] | > 20 | > 20 | > 20 | < 1 |
| O=C1Cc2ccc3c(c2CN1)c1ccccc1n3CCCF [Compound 1-12] | > 20 | > 20 | > 20 | < 1 |
| O=C1CCc2c1ccc1c2c2c(F)cccc2n1CCCF [Compound 1-14] | > 20 | > 20 | > 20 | < 1 |
| CC(=O)c1ccc2c(c1)c1c3c(ccc1n2CCCF)C(=O)CC3 [Compound 1-15] | > 20 | > 20 | > 20 | 1 to 5 |
| O=C1CCc2c1ccc1c2c2cc(Br)ccc2n1CCCF [Compound 1-16] | > 20 | > 20 | > 20 | 1 to 5 |
| CCCn1c2ccccc2c2c3c(ccc21)C(=O)NCC3 [Compound 2-1, 7-Propyl-2,3-dihydro-1H,7H-pyrido[3,4-c]carbazol-4-one] | > 20 | > 20 | > 20 | < 1 |
| O=C1NCCc2c1ccc1c2c2ccccc2n1CCCF [Compound 2-2] | > 20 | > 20 | > 20 | < 1 |

| SMILES | IC50 [2] [µM] | IC50 [3] [µM] | IC50 [4] [µM] | IC50 [1] [µM] |
| --- | --- | --- | --- | --- |
| O=C1NCCCc2c1ccc1c2c2ccccc2n1CCCF [Compound 2-3] | 5 to 20 | > 20 | 5 to 20 | 1 to 5 |
| O=C1CCCc2c(ccc3c2c2ccccc2n3CCCF)N1 [Compound 2-4] | > 20 | 5 to 20 | 5 to 20 | < 1 |
| O=C1NCCOc2c1ccc1c2c2ccccc2n1CCCF [Compound 2-5] | > 20 | > 20 | > 20 | < 1 |
| CCCn1c2ccccc2c2c3cc[nH]c(=O)c3ccc21 [Compound 3-1, 7-Propyl-3H,7H-pyrido[3,4-c]carbazol-4-one] | > 20 | > 20 | > 20 | < 1 |
| O=c1[nH]ccc2c1ccc1c2c2ccccc2n1CCCF [Compound 3-2] | > 20 | > 20 | > 20 | < 1 |
| CCCn1c2ccccc2c2c3occc(=O)c3ccc21 [Compound 3-3] | 5 to 20 | > 20 | > 20 | < 1 |
| CCCn1c2ccccc2c2c3c(ccc21)C(=O)N(C)C3 [Compound 4-1, 2-Methyl-6-propyl-1,2-dihydro-6H-pyrrolo[3,4-c]carbazol-3-one] | < 1 | > 20 | 1 to 5 | < 1 |
| CN1Cc2c(ccc3c2c2ccccc2n3CCCF)C1=O [Compound 4-2] | 1 to 5 | > 20 | 5 to 20 | < 1 |
| O=c1c2ccc3c(c2ccn1CCO)c1ccccc1n3CCCF [Compound 4-3] | > 20 | > 20 | > 20 | 5 to 20 |
| O=c1c2ccc3c(c2ccn1CCN1CCCC1)c1ccccc1n3CCCF [Compound 4-4] | 5 to 20 | 5 to 20 | 5 to 20 | 5 to 20 |
| CCCn1c2ccccc2c2c3nc[nH]c(=O)c3ccc21 [Compound 5-1, 7-Propyl-3H-pyrimido[5,4-c]carbazol-4(7H)-one] | > 20 |  | > 20 | < 1 |
| O=c1[nH]cnc2c1ccc1c2c2ccccc2n1CCCF [Compound 5-2] | > 20 | > 20 | > 20 | < 1 |
| O=c1[nH]ncc2c1ccc1c2c2ccccc2n1CCCF [Compound 5-3] | > 20 | > 20 | > 20 | < 1 |
| CCCn1c2ccccc2c2c3c(ccc21)CC(=O)N3C [Compound 6-1, 1-Methyl-6-propyl-3,6-dihydro-1H-pyrrolo[3,2-c]carbazol-2-one] | > 20 | > 20 | > 20 | < 1 |
| NC(=O)c1cccc2c1c1c3cc[nH]c(=O)c3ccc1n2CCCF [Compound 8-4] | > 20 | > 20 | > 20 | 5 to 20 |
| O=C1NCCc2c1ccc1c2c2ncccc2n1CCCF [Compound 11-2] | > 20 | > 20 | > 20 | < 1 |

Further lines, with some results ahead:

| IC50 [2] [µM] | IC50 [3] [µM] | IC50 [4] [µM] | SMILES | IC50 [1] [µM] |
| --- | --- | --- | --- | --- |
| 5 to 20 | 5 to 20 | 5 to 20 | CCCn1c2ccccc2c2c3c(ccc21)C(O)CC3 (stereo not drawn) [Compound 7-1, 6-Propyl-1,2,3,6-tetrahydro-cyclopenta[c]carbazol-3-ol] | < 1 |
| > 20 | > 20 | > 20 | CCCn1c2ccccc2c2c3c(ccc21)CCC3 [Compound 7-2, 6-Propyl-1,2,3,6-tetrahydro-cyclopenta[c]carbazole] | 1 to 5 |
| 5 to 20 | > 20 | 5 to 20 | O=c1[nH]c2ccc3c(c4ccccc4n3CCCF)c2o1 [Compound 8-2] | < 1 |
| > 20 | > 20 | > 20 | N#Cc1cccc2c1c1c3cc[nH]c(=O)c3ccc1n2CCCF [Compound 8-3] | 1 to 5 |
| 5 to 20 | 5 to 20 | > 20 | CCCn1c2cccnc2c2c3c(ccc21)C(=O)CC3 [Compound 10-1, 6-Propyl-1,2-dihydro-6H-6,10-diazacyclopenta[c]fluoren-3-one] | 1 to 5 |
| 5 to 20 | 5 to 20 | > 20 | O=C1CCc2c1ccc1c2c2ncccc2n1CCCF [Compound 10-2] | < 1 |
| > 20 | > 20 | > 20 | CCCn1c2cccnc2c2c3c(ccc21)C(=O)NC3 [Compound 10-5] | 1 to 5 |
| > 20 | > 20 | > 20 | O=C1NCc2c1ccc1c2c2ncccc2n1CCCF [Compound 10-6, 6-(3-fluoropropyl)-1,2-dihydro-6H-2,6,10-triazacyclopenta[c]fluoren-3-one] | < 1 |
| 5 to 20 | > 20 | > 20 | Cn1ncc2c(ccc3c2c2ncccc2n3CCCF)c1=O [Compound 10-7] | < 1 |
| > 20 | > 20 | > 20 | CCCn1c2cccnc2c2c3ccn(C)c(=O)c3ccc21 [Compound 10-9] | < 1 |
| > 20 | > 20 | > 20 | Cn1ccc2c(ccc3c2c2ncccc2n3CCCF)c1=O [Compound 10-10] | < 1 |
| > 20 | > 20 | > 20 | CCCn1c2cccnc2c2c3c(ccc21)C(=O)NCC3 [Compound 11-1, 7-Propyl-1,2,3,7-tetrahydro-3,7,11-triazabenzo[c]fluoren-4-one] | 5 to 20 |
| > 20 | > 20 | > 20 | O=C1NCCOc2c1ccc1c2c2ncccc2n1CCCF [Compound 11-3] | 1 to 5 |
| > 20 | > 20 | > 20 | CCCn1c2cccnc2c2c3cc[nH]c(=O)c3ccc21 [Compound 12-1, 7-Propyl-3,7-dihydro-3,7,11-triazabenzo[c]fluoren-4-one] | 5 to 20 |
| > 20 | > 20 | > 20 | O=c1[nH]ccc2c1ccc1c2c2ncccc2n1CCCF [Compound 13-1, 7-(3-Fluoropropyl)-3,7-dihydro-3,7,11-triaza-benzo[c]fluoren-4-one] | < 1 |
| > 20 | > 20 | > 20 | O=C1COc2c(ccc3c2c2ncccc2n3CCCF)N1 [Compound 13-2] | 5 to 20 |
| 5 to 20 | > 20 | > 20 | CN1Cc2c(ccc3c2c2ncccc2n3CCCF)C1=O [Compound 14-1, 6-(3-Fluoropropyl)-2-methyl-1,2-dihydro-6H-2,6,10-triazacyclopenta[c]fluoren-3-one] | < 1 |

From US20160368872A1, “COMPOUNDS AND METHODS FOR TREATING CANCERS” (HEALTH RESEARCH, INC., priority 2013, published 2016)
